Test results published in patent US6914045B2, “Glycopeptide antibiotics” (Wyeth Holdings Corporation, priority 2001, dated 2005).
In brackets after ≈: the same amount, converted by molar mass.

Experiments:
Test in all cases: in vitro antibacterial evaluation, MIC by broth dilution
Type in all cases: cell-based
Enterococcus sp. = settings: broth dilution, 18 hours at 35° C.
Outline: (§1)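 Step 1: dilute antibiotic across 64-0.06 μg/mL in Muller-Hinton II […]. Step 2: inoculate at 5×10^5 CFU/mL.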

Escherichia coli = settings: 18 hours at 35° C., strain ATCC 25922
Outline: as §1

Staphylococcus sp. = settings: broth dilution, 18 hours at 35° C.
Outline: as §1

Streptococcus sp. = settings: broth dilution, 18 hours at 35° C.
Outline: as §1

MIC Enterococcus avium (GC 4558) (Enterococcus sp.; Enterococcus avium (GC 4558)): 16 µg/mL (≈ 11.2 µM)
MIC Enterococcus faecalis (ATCC 29212) (Enterococcus sp.; Enterococcus faecalis (ATCC 29212)): 16 µg/mL (≈ 11.2 µM)
MIC Enterococcus faecalis (GC 2242) (Enterococcus sp.; Enterococcus faecalis (GC 2242)): 8 µg/mL (≈ 5.6 µM)
MIC Enterococcus faecalis (GC 4552) (Enterococcus sp.; Enterococcus faecalis (GC 4552)): 16 µg/mL (≈ 11.2 µM)
MIC Enterococcus faecalis (GC 4553) (Enterococcus sp.; Enterococcus faecalis (GC 4553)): 16 µg/mL (≈ 11.2 µM)
MIC Enterococcus faecalis (GC 4554) (Enterococcus sp.; Enterococcus faecalis (GC 4554)): 16 µg/mL (≈ 11.2 µM)
MIC Enterococcus faecium (GC 2243) (Enterococcus sp.; Enterococcus faecium (GC 2243)): 16 µg/mL (≈ 11.2 µM)
MIC Enterococcus faecium (GC 4556) (Enterococcus sp.; Enterococcus faecium (GC 4556)): 16 µg/mL (≈ 11.2 µM)
MIC Enterococcus faecium (GC 4557) (Enterococcus sp.; Enterococcus faecium (GC 4557)): 2 µg/mL (≈ 1.4 µM)
MIC Enterococcus faecalis (ATCC 29212) (Enterococcus sp.; strain ATCC 29212): 16 µg/mL (≈ 11.2 µM)
MIC Enterococcus faecalis (GC 2242) (Enterococcus sp.; strain GC 2242): 8 µg/mL (≈ 5.6 µM)
MIC Enterococcus faecium (GC 2243) (Enterococcus sp.; strain GC 2243): 16 µg/mL (≈ 11.2 µM)
MIC Enterococcus faecalis (GC 4552) (Enterococcus sp.; strain GC 4552): 16 µg/mL (≈ 11.2 µM)
MIC Enterococcus faecalis (GC 4553) (Enterococcus sp.; strain GC 4553): 16 µg/mL (≈ 11.2 µM)
MIC Enterococcus faecalis (GC 4554) (Enterococcus sp.; strain GC 4554): 16 µg/mL (≈ 11.2 µM)
MIC Enterococcus faecium (GC 4556) (Enterococcus sp.; strain GC 4556): 16 µg/mL (≈ 11.2 µM)
MIC Enterococcus faecium (GC 4557) (Enterococcus sp.; strain GC 4557): 2 µg/mL (≈ 1.4 µM)
MIC Enterococcus avium (GC 4558) (Enterococcus sp.; strain GC 4558): 16 µg/mL (≈ 11.2 µM)
MIC Escherichia coli (ATCC 25922) (Escherichia coli): 64 µg/mL (≈ 44.8 µM)
MIC Coagulase Negative Staphylococcus (GC 4547) (Staphylococcus sp.): 1 µg/mL (≈ 0.7 µM)
MIC Coagulase Negative Staphylococcus (GC 4548) (Staphylococcus sp.): 1 µg/mL (≈ 0.7 µM)
MIC Coagulase Negative Staphylococcus (GC 4549) (Staphylococcus sp.): 1 µg/mL (≈ 0.7 µM)
MIC Coagulase Negative Staphylococcus (GC 4551) (Staphylococcus sp.): 2 µg/mL (≈ 1.4 µM)
MIC Coagulase Negative Staphylococcus (ID-3941) (Staphylococcus sp.): 1 µg/mL (≈ 0.7 µM)
MIC Staphylococcus aureus (ATCC 29213) (Staphylococcus sp.): 2 µg/mL (≈ 1.4 µM)
MIC Staphylococcus aureus (GC 1131) (Staphylococcus sp.): 4 µg/mL (≈ 2.8 µM)
MIC Staphylococcus aureus (GC 4541) (Staphylococcus sp.): 2 µg/mL (≈ 1.4 µM)
MIC Staphylococcus aureus (GC 4542) (Staphylococcus sp.): 4 µg/mL (≈ 2.8 µM)
MIC Staphylococcus aureus (GC 4544) (Staphylococcus sp.): 4 µg/mL (≈ 2.8 µM)
MIC Staphylococcus aureus (GC 4545) (Staphylococcus sp.): 4 µg/mL (≈ 2.8 µM)
MIC Staphylococcus aureus-SMITH (GC 4543) (Staphylococcus sp.): 8 µg/mL (≈ 5.6 µM)
MIC Coagulase Negative Staphylococcus (GC 4547) (Staphylococcus sp.; strain GC 4547): 1 µg/mL (≈ 0.7 µM)
MIC Coagulase Negative Staphylococcus (GC 4548) (Staphylococcus sp.; strain GC 4548): 1 µg/mL (≈ 0.7 µM)
MIC Coagulase Negative Staphylococcus (GC 4549) (Staphylococcus sp.; strain GC 4549): 1 µg/mL (≈ 0.7 µM)
MIC Coagulase Negative Staphylococcus (GC 4551) (Staphylococcus sp.; strain GC 4551): 2 µg/mL (≈ 1.4 µM)
MIC Coagulase Negative Staphylococcus (ID-3941) (Staphylococcus sp.; strain ID-3941): 1 µg/mL (≈ 0.7 µM)
MIC Staphylococcus aureus-SMITH (GC 4543) (Staphylococcus sp.; strain SMITH GC 4543): 8 µg/mL (≈ 5.6 µM)
MIC Staphylococcus aureus (ATCC 29213) (Staphylococcus sp.; strain ATCC 29213): 2 µg/mL (≈ 1.4 µM)
MIC Staphylococcus aureus (GC 1131) (Staphylococcus sp.; strain GC 1131): 4 µg/mL (≈ 2.8 µM)
MIC Staphylococcus aureus (GC 4541) (Staphylococcus sp.; strain GC 4541): 2 µg/mL (≈ 1.4 µM)
MIC Staphylococcus aureus (GC 4542) (Staphylococcus sp.; strain GC 4542): 4 µg/mL (≈ 2.8 µM)
MIC Staphylococcus aureus (GC 4544) (Staphylococcus sp.; strain GC 4544): 4 µg/mL (≈ 2.8 µM)
MIC Staphylococcus aureus (GC 4545) (Staphylococcus sp.; strain GC 4545): 4 µg/mL (≈ 2.8 µM)
MIC Streptococcus agalactiae (GC 4564) (Streptococcus sp.; Streptococcus agalactiae (GC 4564)): 1 µg/mL (≈ 0.7 µM)
MIC Streptococcus pneumoniae (GC 4565) (Streptococcus sp.; Streptococcus pneumoniae (GC 4565)): <0.5 µg/mL
MIC Streptococcus pyogenes (ID-3187) (Streptococcus sp.; Streptococcus pyogenes (ID-3187)): 1 µg/mL (≈ 0.7 µM)
MIC Streptococcus agalactiae (GC 4564) (Streptococcus sp.; strain GC 4564): 1 µg/mL (≈ 0.7 µM)
MIC Streptococcus pneumoniae (GC 4565) (Streptococcus sp.; strain GC 4565): <0.5 µg/mL
MIC Streptococcus pyogenes (ID-3187) (Streptococcus sp.; strain ID-3187): 1 µg/mL (≈ 0.7 µM)
Structure (SMILES): CC(c1ccccc1)C1NC(=O)CNC(=O)C(CO)NC(=O)C(C(O)C2CNC(=N)N2C2OC(CO)C(O)C(O)C2O)NC(=O)C(C(O)C2CNC(=N)N2)NC(=O)C(Cc2ccc(OC3OC(CO)C(OC4OC(COC(=O)OCc5ccccc5)C(O)C(O)C4O)C(O)C3O)cc2)NC1=O (stereo not drawn) [Example 101a]
MIC Staphylococcus haemolyticus (GC 4546) (Staphylococcus sp.): 1 µg/mL (≈ 0.7 µM)
MIC Staphylococcus haemolyticus (GC 4546) (Staphylococcus sp.; strain GC 4546): 1 µg/mL (≈ 0.7 µM)
